Like-named read-outs stand apart in the source and are kept apart here.
How the values were obtained:
MOLM-13 = experiment: Cell growth inhibition, 4-day proliferation assay, MOLM-13; format: cell-based; details: Homo sapiens, MOLM-13, 96 h, read-out: Cell IC50 (nM) MOLM13
Experimental: (§1) The effect of representative Compounds of the Disclosure on cell viability was determined in a 4-day proliferation assay. Cells were maintained in the appropriate culture medium with 100/0 FBS at 37° C. and an atmosphere of 5% CO2. All the cell lines were used within three months of thawing fresh vials.
(§2) In general, cells were seeded in 96-well flat bottom (Corning COSTAR, Corning, N.Y., cat #3595) or white opaque cell culture plates (BD Falcon, cat #353296) at a density of 3,000-10,000 cells/well in 75 μl of culture medium. Compounds were serially diluted in the appropriate medium, and 75 μl of the diluted compounds were added to the appropriate wells of the cell plate. After the addition of compounds, the cells were incubated at 37° C. in an atmosphere of 5% CO2 for 4 days. Cell viability was determined using the CellTiter-Glo® Luminescent Cell Viability Assay Kit (Promega, Madison, Wis.) for leukemia cells and WST (2-(2-methoxy-4-nitrophenyl)-3-(4-nitrophenyl)-5-(2,4-disulfophenyl)-2H-tetrazolium, monosodium salt) Cell Counting-8 Kit (Dojindo Molecular Technologies, Inc., Rockville, Md.) for adherent cells according to the manufacturers' instructions.
(§3) For WST assay (adherent cells), WST-8 reagent was added to each well at a final concentration of 10% (v/v), and then the plates were incubated at 37° C. for 1-2 hours for color development. The absorbance was measured at 450 nm using a SPECTRAmax PLUS plate reader (Molecular Devices, Sunnyvale, Calif.). The readings were normalized to the DMSO-treated cells and the half maximal inhibitory concentration (IC50) was calculated by nonlinear regression (four parameters sigmoid fitted with variable slope, least squares fit, and no constraint) analysis using the GraphPad Prism 5 software (GraphPad Software, La Jolla, Calif.).
(§4) For CellTiter-Glo assay (suspension cells), 100 μl of CellTiter-Glo® Reagent was added to each well, and then the plates were incubated at room temperature for 10-20 minutes. The luminescent signal was measured using a Tecan Infinite M1000 multimode microplate reader (Tecan, Morrisville, N.C.). The readings were normalized to the DMSO-treated cells and the IC50 was calculated by nonlinear regression (four parameters sigmoid fitted with variable slope, least squares fit, and no constraint) analysis using the GraphPad Prism 5 software. See US 2014/0256706.
(§5) For a number of representative compounds in Table 5, their IC50 values in cell growth inhibition activity in the RS4;11 and MOLM-13 human leukemia cell lines and the MDA-MB-231 breast cancer cell line were evaluated using the WST-8 assay described in EXAMPLE 7, with the data shown in Table 7.

recombinant BRD4 BD2 = molecular target: T1, recombinant BRD4 BD2 (Homo sapiens, UniProt O60885); experiment: Competitive fluorescence-polarization (FP) binding assay, BRD4 BD2
T1 construct: for recombinant BRD4 BD1 and BRD4 BD2 proteins
Experimental: Fluorescence Polarization (FP) competitive binding studies were carried out using a FAM labeled fluorescent probe, see, e.g., Cpd. No. 350 of US 2014/0256706, to determine binding affinities of representative Compounds of the Disclosure for recombinant BRD4 BD1 and BRD4 BD2 proteins. Equilibrium dissociation constants (Kd) values of the fluorescent probe to BRD4 BD1 and BD2 proteins were determined from protein saturation experiments by monitoring the total fluorescence polarization of mixtures composed with the fluorescent probe at a fixed concentration and proteins with increasing concentrations up to full saturation. Serial dilutions of testing proteins were mixed with the fluorescent probe to a final volume of 200 μl in the assay buffer (100 mM phosphate buffer, pH=6.5, 0.01% Triton X-100 (Sigma, 282103) being added right before assays). Final fluorescent probe concentration was 1.5 nM for both proteins. Plates were incubated at room temperature for 30 minutes with gentle shaking to assure equilibrium. FP values in millipolarization units (mP) were measured using the Infinite M-1000 plate reader (Tecan U.S., Research Triangle Park, N.C.) in Microfluor 1 96-well, black, round-bottom plates (Thermo Scientific, Waltham, Mass.) at an excitation wavelength of 485 nm and an emission wavelength of 530 nm. Kd values of the fluorescent probe, which were calculated by fitting the sigmoidal dose-dependent FP increases as a function of protein concentrations using Graphpad Prism 6.0 software (Graphpad Software, San Diego, Calif.), are 5.5 and 3.0 nM to BDR4 BD1 and 2, respectively.
The IC50 and Ki values of compounds were determined in a competitive binding experiment. See US 2014/0256706. Mixtures of 10 μl of the tested compounds in assay buffer with 40% Ethylene Glycol and 190 μl of preincubated protein/probe complex solution in the assay buffer (100 mM potassium phosphate, pH 6.5, 0.01% Triton X-100) were added into assay plates which were incubated at room temperature for 30 minutes with gentle shaking. Final concentrations of proteins were 10 and 6 nM in assays for BRD4 BD1 and BD2, respectively. Final probe concentration is 1.5 nM in both assays. Negative controls containing protein/probe complex only (equivalent to 0% inhibition), and positive controls containing only free probes (equivalent to 100% inhibition), were included in each assay plate. FP values were measured as described above. IC50 values were determined by nonlinear regression fitting of the competition curves. Instead of being calculated from IC50 values as described before. Ki values of competitive inhibitors were obtained directly by nonlinear regression fitting as well, based upon the Kd values of the probe to different proteins, and concentrations of the proteins and probes in the competitive assays (US 2014/0256706; Wang, FEBS Lett. 360:111 (1995); Zhang et al., Analytical Biochemistry, 331:138 (2004)).
Representative compounds in Table 5 were evaluated for their binding affinities to BRD4 BD1 and BD2 proteins using the Competitive Fluorescence-Polarization (FP) Assays described in Example 6, with the data included in Table 6.

MDA-MB-231 = experiment: Cell growth inhibition, 4-day proliferation assay, MDA-MB-231; format: cell-based; details: Homo sapiens, MDA-MB-231, 96 h, read-out: Cell IC50 (nM) MDA-MB-231
Experimental: as §1, §2, §3, §4, §5

[1] = 4-day proliferation assay, Table 4

| Compound | IC50 (MOLM-13) | IC50 (recombinant BRD4 BD2) | IC50 (MDA-MB-231) | IC50 (MOLM-13; [1]) | IC50 (recombinant BRD4 BD2; competitive FP, Table 3, read-out: Binding Affinity BRD4-BD2 IC50) | IC50 (MDA-MB-231; [1]) |
| --- | --- | --- | --- | --- | --- | --- |
| Cc1c(C#Cc2ccncc2)sc2c1C(c1ccc(Cl)cc1)=N[C@@H](C)c1nnc(C)n1-2 [Cpd. No. 8, (S)-4-(4-chlorophenyl)-3,6,9-trimethyl-2-(pyridin-4-ylethynyl)-6H-thieno[3,2-f][1,2,4]triazolo[4,3-a][1,4]diazepine] | 13.5 ± 0.8 nM | 10.4 nM | 64.5 ± 22.7 nM |  |  |  |
| Cc1c(C#CCN(C)C)sc2c1C(c1ccc(Cl)cc1)=N[C@@H](C)c1nnc(C)n1-2 [Cpd. No. 16, (S)-3-(4-(4-chlorophenyl)-3,6,9-trimethyl-6H-thieno[3,2-f][1,2,4]triazolo[4,3-a][1,4]diazepin-2-yl)-N,N-dimethylprop-2-yn-1-amine] | 27.9 nM | 58.9 nM | 40.9 nM |  |  |  |
| Cc1c(C#Cc2cccnc2)sc2c1C(c1ccc(Cl)cc1)=NCc1nnc(C)n1-2 [Cpd. No. 3, 4-(4-chlorophenyl)-3,9-dimethyl-2-(pyridin-3-ylethynyl)-6H-thieno[3,2-f][1,2,4]triazolo[4,3-a][1,4]diazepine] | 145 ± 13.7 nM | 124 nM | 151 ± 19 nM |  |  |  |
| Cc1c(C#CCCCO)sc2c1C(c1ccc(Cl)cc1)=N[C@@H](C)c1nnc(C)n1-2 [Cpd. No. 11, (S)-5-(4-(4-chlorophenyl)-3,6,9-trimethyl-6H-thieno[3,2-f][1,2,4]triazolo[4,3-a][1,4]diazepin-2-yl)pent-4-yn-1-ol] | 6.87 nM | 7.22 nM | < 1.7 nM |  |  |  |
| Cc1c(C#Cc2ccncc2)sc2c1C(c1ccc(Cl)cc1)=NCc1nnc(C)n1-2 [Cpd. No. 7, 4-(4-chlorophenyl)-3,9-dimethyl-2-(pyridin-4-ylethynyl)-6H-thieno[3,2-f][1,2,4]triazolo[4,3-a][1,4]diazepine] | 144 ± 16.3 nM | 1670 nM | 660 ± 83.6 nM |  |  |  |
| Cc1c(C#Cc2ccccn2)sc2c1C(c1ccc(Cl)cc1)=NCc1nnc(C)n1-2 [Cpd. No. 1, 4-(4-chlorophenyl)-3,9-dimethyl-2-(pyridin-2-ylethynyl)-6H-thieno[3,2-f][1,2,4]triazolo[4,3-a][1,4]diazepine] | 206 ± 21.9 nM | 178 nM | 272 nM |  |  |  |
| Cc1c(C#Cc2ccccn2)sc2c1C(c1ccc(Cl)cc1)=N[C@@H](C)c1nnc(C)n1-2 [Cpd. No. 2, (S)-4-(4-chlorophenyl)-3,6,9-trimethyl-2-(pyridin-2-ylethynyl)-6H-thieno[3,2-f][1,2,4]triazolo[4,3-a][1,4]diazepine] | 15.7 ± 0.43 nM | 14.5 nM | 31 nM |  |  |  |
| Cc1c(C#Cc2ccnn2C)sc2c1C(c1ccc(Cl)cc1)=N[C@@H](C)c1nnc(C)n1-2 [Cpd. No. 17, (S)-4-(4-chlorophenyl)-3,6,9-trimethyl-2-((1-methyl-1H-pyrazol-5-yl)ethynyl)-6H-thieno[3,2-f][1,2,4]triazolo[4,3-a][1,4]diazepine] | 23.7 nM | 14.4 nM | 14.6 nM |  |  |  |
| Cc1c(C#Cc2cccnc2)sc2c1C(c1ccc(Cl)cc1)=N[C@@H](C)c1nnc(C)n1-2 [Cpd. No. 4, (S)-4-(4-chlorophenyl)-3,6,9-trimethyl-2-(pyridin-3-ylethynyl)-6H-thieno[3,2-f][1,2,4]triazolo[4,3-a][1,4]diazepine] | 10.5 ± 0.24 nM | 12.5 nM | 2.63 ± 0.6 nM |  |  |  |
| Cc1c(C#Cc2ccc(CCCCO)cn2)sc2c1C(c1ccc(Cl)cc1)=N[C@@H](C)c1nnc(C)n1-2 [Cpd. No. 13] |  |  |  | 23 nM | 11.1 nM | 84.4 nM |
| Cc1c(C#Cc2cncnc2)sc2c1C(c1ccc(Cl)cc1)=NCc1nnc(C)n1-2 [Cpd. No. 5, 4-(4-chlorophenyl)-3,9-dimethyl-2-(pyrimidin-5-ylethynyl)-6H-thieno[3,2-f][1,2,4]triazolo[4,3-a][1,4]diazepine] | 176 ± 25.5 nM | 305 nM | 214 ± 35.2 nM |  |  |  |
| Cc1c(C#CCO)sc2c1C(c1ccc(Cl)cc1)=N[C@@H](C)c1nnc(C)n1-2 [Cpd. No. 10, (S)-3-(4-(4-chlorophenyl)-3,6,9-trimethyl-6H-thieno[3,2-f][1,2,4]triazolo[4,3-a][1,4]diazepin-2-yl)prop-2-yn-1-ol] | 30.5 nM | 11.8 nM | 31.8 nM |  |  |  |
| Cc1c(C#Cc2ccc(N)nc2)sc2c1C(c1ccc(Cl)cc1)=N[C@@H](C)c1nnc(C)n1-2 [Cpd. No. 18, (S)-5-((4-(4-chlorophenyl)-3,6,9-trimethyl-6H-thieno[3,2-f][1,2,4]triazolo[4,3-a][1,4]diazepin-2-yl)ethynyl)pyridin-2-amine] | 9.63 nM | 8.84 nM | 2.44 nM |  |  |  |
| Cc1c(C#Cc2cnn(CCCO)c2)sc2c1C(c1ccc(Cl)cc1)=N[C@@H](C)c1nnc(C)n1-2 [Cpd. No. 12, (S)-3-(4-((4-(4-chlorophenyl)-3,6,9-trimethyl-6H-thieno[3,2-f][1,2,4]triazolo[4,3-a][1,4]diazepin-2-yl)ethynyl)-1H-pyrazol-1-yl)propan-1-ol] | 3.74 nM | 10.8 nM | 31.5 nM |  |  |  |
| COCC#Cc1sc2c(c1C)C(c1ccc(Cl)cc1)=N[C@@H](C)c1nnc(C)n1-2 [Cpd. No. 15, (S)-4-(4-chlorophenyl)-2-(3-methoxyprop-1-yn-1-yl)-3,6,9-trimethyl-6H-thieno[3,2-f][1,2,4]triazolo[4,3-a][1,4]diazepine] | 25.6 nM | 11.3 nM | 51.1 nM |  |  |  |
| Cc1c(C#Cc2cnn(CC(=O)O)c2)sc2c1C(c1ccc(Cl)cc1)=N[C@@H](C)c1nnc(C)n1-2 [Cpd. No. 14, (S)-2-(4-((4-(4-chlorophenyl)-3,6,9-trimethyl-6H-thieno[3,2-f][1,2,4]triazolo[4,3-a][1,4]diazepin-2-yl)ethynyl)-1H-pyrazol-1-yl)acetic acid] | 964 nM | 12.3 nM | 965 nM |  |  |  |
| Cc1c(C#Cc2cncnc2)sc2c1C(c1ccc(Cl)cc1)=N[C@@H](C)c1nnc(C)n1-2 [Cpd. No. 6, (S)-4-(4-chlorophenyl)-3,6,9-trimethyl-2-(pyrimidin-5-ylethynyl)-6H-thieno[3,2-f][1,2,4]triazolo[4,3-a][1,4]diazepine] | 15.6 ± 1.7 nM | 16 nM | 17.8 ± 19 nM |  |  |  |

Reference: US11046709B2, “Fused 1,4-diazepines as BET bromodomain inhibitors” (THE REGENTS OF THE UNIVERSITY OF MICHIGAN, priority 2017, dated 2021)
